Measured values published in patent US5504106A, “Phenyl amidine alkanoic acids and lactones useful as platelet aggregation inhibitors” (G. D. Searle & Co., priority 1994, dated 1996).
pIC50: −log10 of the molar value. Values joined by “and” are separate entries in the source; they are usually repeats but may differ in a detail not shown here. Equal values may be shown once. Where a name gives a salt, the structure may show the parent alone.

System: Dog PRP
Experiment: In-Vitro Platelet Aggregation in PRP (ADP-induced)
Type: cell-based
Details: dog platelet-rich plasma, ADP-induced aggregation (50 μm final concentration), 37° C.; for Dog PRP % Inhibition: Test Concentration 1 × 10^-5; for pIC50: 1 minute preincubation, linear regression of dose response curve
Method: Healthy male or female dogs were fasted for 8 hours prior to drawing blood; then 30 ml whole blood was collected using a butterfly needle and 30 cc plastic syringe with 3 ml of 0.129M buffered sodium citrate (3.8%). The syringe was rotated carefully as blood was drawn to mix the citrate. Platelet-rich plasma (PRP) was prepared by centrifugation at 975× g for 3.17 minutes at room temperature, allowing the centrifuge to coast to a stop without braking. The PRP was removed from the blood with a plastic pipette and placed in a plastic capped, 50 ml Corning conical sterile centrifuge tube which was held at room temperature. Platelet poor plasma (PPP) was prepared by centrifuging the remaining blood at 2000× g for 15 minutes at room temperature allowing the centrifuge to coast to a stop without braking. The PRP was adjusted with PPP to a count of 2-3×10^8 platelets per ml. 400 μl of the PRP preparation and 50 μl of the compound to be tested as prepared below or saline were preincubated for 1 minute at 37° C. in a BioData aggregometer (BioData, Horsham, Pa.). 50 μl of adenosine 5'diphosphate (ADP) (50 μm final concentration) was added to the cuvettes and the aggregation was monitored for 1 minute. The test compounds were prepared by the following procedure. The compound was dissolved in 100% ethanol at a concentration of 10^-2 M. It was vortexed for 30 seconds followed by the addition of 1.1 equivalents of 1N NaOH. This solution was mixed for 30 minutes at room temperature. After the 30 minutes of mixing, the compound solution was brought to a working concentration of 10^-3 M with double distilled water. All compounds are tested in duplicate. Results are calculated as follows:
Percent of control= (maximal OD minus initial OD of compound) divided by (maximal OD minus initial OD of control saline)!×100. The % inhibition=100-(percent of control).
The assay results for the representative compounds of the present invention are set forth in Table A. Also in Table A, two readings given in a single box indicate that two trials, rather than a single trial, were run for that particular compound in that particular assay.

[1] = Canis lupus familiaris, Platelet

SMILES | Dog PRP % Inhibition | pIC50 | pIC50 [1]
N=C(N)c1ccc(CCCCC2CCCC(=O)O2)cc1 (racemic) [6-4-(4-(aminoiminomethyl)phenyl)butyl)tetrahydro-2H -pyran-2-one] | 29% and 38% | – | –
COC(=O)CC1CC(=O)OC(CCCCc2ccc(C(=N)N)cc2)C1 (racemic) [(±)-cis-methyl 2-4-4-(aminoiminomethyl)phenyl!butyl!tetrahydro-6-oxo-2H-pyran-4-acetate] | 100% | 5.40 | –
N=C(N)c1ccc(CCCC[C@@H]2C[C@H](c3cccnc3)CC(=O)O2)cc1 (relative stereo) [(±)-cis-6-4-4-(Aminoiminomethyl)phenyl)butyl!tetrahydro-4-(3-pyridinyl)-2H-pyran-2-one, ditrifluoroacetate] | 100% | – | 6.80
C[C@@H]1CC(=O)O[C@H](CCCCc2ccc(C(=N)N)cc2)C1 (relative stereo) [(±)-cis-6-4-4-(Aminoiminomethyl)phenyl)butyl!tetrahydro-4-methyl-2H-pyran-2-one, trifluoroacetate] | 74% | – | 5.15
N=C(N)c1ccc(CCCC[C@@H]2C[C@H](c3ccccc3)CC(=O)O2)cc1 (relative stereo) [(±)-cis-6-4-4-(Aminoiminomethyl)phenyl)butyl!tetrahydro-4-phenyl-2H-pyran-2-one, trifluoroacetate] | 100% | – | 5.38
N=C(N)c1ccc(CCCC[C@@H]2C[C@H](CS(=O)(=O)c3ccccc3)CC(=O)O2)cc1 (relative stereo) [(±)-cis-6-4-4-(aminoiminomethyl)phenyl!butyl!tetrahydro-4-(phenylsulfonyl)methyl!-2H-pyran-2-one, trifluoroacetate] | 100% | – | 5.59
N=C(N)c1ccc(CCCC[C@@H]2C[C@H](O)CC(=O)O2)cc1 (relative stereo) [(±)-cis-6-4-4-Aminoiminomethyl)phenyl!butyl!tetrahydro-4-hydroxy-2H-pyran-2-one, trifluoroacetate] | 89% and 96% | 5.39 | 5.28
C=C[C@@H]1CC(=O)O[C@H](CCCCc2ccc(C(=N)N)cc2)C1 (relative stereo) [(±)-cis-6-4-(4-(Aminoiminomethyl)phenyl)butyl!-4-ethenyl-tetrahydro-2H-pyran-2-one, trifluoroacetate] | 100% | – | 5.59
N=C(N)c1ccc(CCCC[C@@H]2C[C@@H](c3ccccc3)CC(=O)O2)cc1 (relative stereo) [(±)-trans-6-4-4-(Aminoimino)phenyl)butyl!tetrahydro-4-phenyl-2H-pyran-2-one, trifluoroacetate] | 7% | – | –
N=C(N)c1ccc(CCCC[C@@H]2C[C@@H](O)CC(=O)O2)cc1 (relative stereo) [(±)-trans-6-4-4-(Aminoiminomethyl)phenyl!butyl!tetrahydro-4-hydroxy-2H-pyran-2-one, trifluoroacetate] | 36% | – | –
N=C(N)c1ccc(NC(=O)CC[C@@H]2C[C@H](O)CC(=O)O2)cc1 [N-4-(aminoiminomethyl)phenyl!3,4,5,6-tetrahydro-6-oxo-4S-hydroxy-2H-pyran-2R-propanamide, trifluoroacetate] | – | – | 6.46
N=C(N)c1ccc(NC(=O)CCC2CCCC(=O)O2)cc1 (centres unmarked) [N-4-(aminoiminomethyl)phenyl!tetrahydro-6-oxo-2H-pyran-2-propanamide, trifluoroacetate] | – | – | 5.54
